Common to all, as to assay type: in vivo
Test [1] has as its system NOD mice. In words: Treatment of initial stages of diabetes in NOD mice (Example 5). Conditions: 0 to 1 mg insulin, oral and aerosol, hyperglycemic mice from weeks 12-20 of age. Here is the method:
Insulin (0 to 1 mg as in Examples 1 and 2) will be administered to NOD mice which are suffering from hyperglycemia in an oral and aerosol form. The treatments will begin by weeks 12-20 of age, by which the serum glucose levels are at hyperglycemic concentrations in a certain percentage of animals prior to onset of diabetes.

Test [2] relates to NOD mice. Description: Preliminary experiments: insulitis in NOD mice fed insulin. Conditions: fed 1 mg of insulin; data not shown. From the text:
Therefore, oral administration of insulin to NOD mice appeared to be affecting the infiltration of immune system cells into the pancreas and thus halting disease progression by preserving beta cell function.

For test [3], the system named is NOD mice. Description: Glucose post oral insulin in fasting 7 week NOD mice (Example 2). Conditions: for blood glucose over the next 24 hours: animals in fasting state; for blood glucose after feeding: fasting 7 week old mice. Here is the method: In order to determine whether any endocrinologic (i.e. direct lowering of blood sugar) effects occurred following the feeding of insulin, 7 week old NOD mice (5 mice per group) were fed 1 mg of porcine insulin or 1 mg of myelin basic protein (obtained from Pel Freez, Rogers, Ark.) as a control protein. Blood glucose was then measured over the next 24 hour period. As a positive control, a separate group of animals were injected subcutaneously with 20 micrograms of Porcine insulin. All animals were kept in the fasting state.

Test [4] relates to NOD mice. In words: Effect of aerosol administration of insulin on diabetes in NOD mice (Example 4). Conditions: 0 to 1 mg insulin in aerosol form by nebulizer. The method, then: Insulin (0 to 1 mg as in Examples 1 and 2) will be administered to NOD mice as described above in Examples 1 and 2 except in aerosol form by nebulizer.
The test system of test [5] is NOD (non-obese diabetic) mice. Description: Effect of feeding porcine insulin on spontaneous diabetes in NOD mice (Example 1). An excerpt:
NOD (non-obese diabetic mice) were obtained from Taconic Laboratories (Germantown, Mass.) at 4 weeks of age. There were a total of 30 animals in each of the groups mentioned below at the beginning of the experiment. At 41/2 weeks of age, animals were orally administered Porcine insulin (Novo Laboratories, Danbury, Conn.). Each animal received two treatments orally twice a week until 9 weeks of age. The mice were fed either saline (control) or 10 micrograms, 100 micrograms, or 1 milligram of Porcine insulin. The animals were fed (gavaged) with an 18 gauge ball-point needle (Popper and Sons, Inc., New Hyde Park, N.Y.). Beginning at 10 weeks the animals were then fed once a week for a total of 33 weeks. Beginning at 12 weeks the urine was tested weekly for the presence of glucose using Glucosuria test tape (Eli Lilly, Indianapolis, Ind.). If an animal tested 3+ or higher on the glucose urine test, a serum sample was taken and blood glucose measured using a glucose analyzer (Beckman). If the blood glucose was 220 or higher, the animals were classified as diabetic and then sacrificed.

“And” between values parts separate entries of the source, which are not always exact repeats. Equal entries are not always repeated. “Also recorded” adds a separate entry of the source.

insulin: in the test on NOD mice [1], the beta cell function result is recorded as “preservation of beta cell function” and the serum glucose concentrations result is listed as “reduction in serum glucose concentrations to near normal levels”. In the test with NOD mice [2], the “inflammatory immune system cells surrounding the pancreas (insulitis) vs PBS-fed mice” value is reported as “fewer inflammatory immune system cells surrounding the pancreas”. In the test on NOD mice [3] (1 mg fed orally), the “endocrinologic (metabolic) effects of feeding” value was “no endocrinologic (metabolic) effects”, the “blood glucose over the next 24 hours” value is “gradual decrease in blood glucose” and the “blood glucose after feeding” value is listed as “no drop in the blood glucose”. In addition, the “decrease in the glucose level” value in the test with NOD mice [3] (20 micrograms porcine insulin injected subcutaneously (positive control), fasting) is “approximately 80 mg %”. Moreover, in the test with NOD mice [3] (20 micrograms porcine insulin subcutaneously, fasting), the “period over which the drop in glucose persisted” value worked out at 4 h. Also, in the test with NOD mice [4], the “prevention of symptoms (hyperglycemia) of Type 1 diabetes” value was “effective in preventing the manifestation of symptoms”. Moreover, in test [5] (1 mg porcine insulin fed orally (gavage), diabetic = blood glucose 220 or higher), the development of diabetes result is recorded as “none of the mice went on to develop diabetes; also recorded: no diabetes developed in any of the animals; also recorded: None of the animals developed diabetes”. Also, in test [5] (10 micrograms porcine insulin fed orally), the development of diabetes entry is recorded as “diabetes developed”. Besides, the “incidence of diabetes, all oral doses tested” value in test [5] (10 micrograms, 100 micrograms, 1 mg oral, dose-dependent) is “lower incidence of diabetes at all doses; also recorded: reduced the numbers of these mice which subsequently went on to develop diabetes”. In test [5] (100 micrograms porcine insulin fed orally), the development of diabetes result is given as “diabetes developed”. Also, the “blood sugar of individual animals which developed diabetes” value in test [5] (fed 10 micrograms of insulin) is 330 mg/dL and 420 mg/dL and 315 mg/dL and 459 mg/dL and 520 mg/dL and 487 mg/dL. Moreover, the “blood sugar of individual animals that became diabetic” value in test [5] (fed 100 micrograms of insulin) is 500 mg/dL and 290 mg/dL and 600 mg/dL and 450 mg/dL. Moreover, the “treated animals that failed to develop diabetes” value in test [5] (highest dose of oral insulin (1 mg)) was 100%.

Regarding myelin basic protein, in the test on NOD mice [3] (1 mg fed orally), the “blood glucose over the next 24 hours” value is “gradual decrease in blood glucose” and the “blood glucose after feeding” value is recorded as “no drop in the blood glucose”.

Source of the values: US5643868A, “Method of treating or preventing type 1 diabetes by oral administration of insulin” (Autoimmune, Inc., priority 1995, dated 1997).
